Data published in US20140235587A1, “SUBSTITUTED PYRAZOLES AS SPHINGOSINE RECEPTOR MODULATORS” (Allergan, Inc., priority 2013, published 2014).

molecular target: T1, human S1P1 receptor (Homo sapiens, UniProt P21453); assay: GTP γ35S binding assay for S1P1 activity; format: biochemical; settings: membranes of cells stably expressing S1P1; test compounds 0.08 to 5,000 nM; 30 min at 25° C.; read-out: S1P1 EC50 (Activity potency: S1P1 receptor from GTP γ35S)
T1 construct: expressed in transfected cells; membranes used
Description: Compounds were tested for S1P1 activity using the GTP γ^35S binding assay. These compounds may be assessed for their ability to activate or block activation of the human S1P1 receptor in cells stably expressing the S1P1 receptor. GTP γ^35S binding was measured in the medium containing (mM) HEPES 25, pH 7.4, MgCl2 10, NaCl 100, dithitothreitol 0.5, digitonin 0.003%, 0.2 nM GTP γ^35S, and 5 μg membrane protein in a volume of 150 μl. Test compounds were included in the concentration range from 0.08 to 5,000 nM unless indicated otherwise. Membranes were incubated with 100 μM 5′-adenylylimmidodiphosphate for 30 min, and subsequently with 10 μM GDP for 10 min on ice. Drug solutions and membrane were mixed, and then reactions were initiated by adding GTP γ^35S and continued for 30 min at 25° C. Reaction mixtures were filtered over Whatman GF/B filters under vacuum, and washed three times with 3 mL of ice-cold buffer (HEPES 25, pH7.4, MgCl2 10 and NaCl 100). Filters were dried and mixed with scintillant, and counted for ^35S activity using a β-counter. Agonist-induced GTP γ^35S binding was obtained by subtracting that in the absence of agonist. Binding data were analyzed using a non-linear regression method. In case of antagonist assay, the reaction mixture contained 10 nM S1P in the presence of test antagonist at concentrations ranging from 0.08 to 5000 nM.

T1 sequence (P21453 whole entry): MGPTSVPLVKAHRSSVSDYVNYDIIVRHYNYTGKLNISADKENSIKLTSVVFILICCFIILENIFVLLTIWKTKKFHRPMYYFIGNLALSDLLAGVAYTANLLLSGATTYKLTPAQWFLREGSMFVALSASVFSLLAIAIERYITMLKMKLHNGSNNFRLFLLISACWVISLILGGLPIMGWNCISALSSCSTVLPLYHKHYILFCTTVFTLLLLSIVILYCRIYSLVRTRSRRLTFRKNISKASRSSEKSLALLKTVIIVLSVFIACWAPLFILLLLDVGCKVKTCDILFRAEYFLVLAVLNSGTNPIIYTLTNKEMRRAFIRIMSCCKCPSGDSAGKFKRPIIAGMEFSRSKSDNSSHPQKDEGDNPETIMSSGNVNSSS

SMILES	EC50 [nM]
CCCN1N=C(c2nc(-c3ccc(CNCCCP(=O)(O)O)cc3)no2)CC1c1ccccc1 (centres unmarked) [Compound 1, [3-({4-[5-(5-phenyl-1-propyl-4,5-dihydro-1H-pyrazol-3-yl)-1,2,4-oxadiazol-3-yl]benzyl}amino)propyl]phosphonic acid]	18
CN1N=C(c2nc(-c3ccc(CNCCCP(=O)(O)O)cc3)no2)CC1c1ccccc1 (centres unmarked) [Compound 2, [3-({4-[5-(1-methyl-5-phenyl-4,5-dihydro-1H-pyrazol-3-yl)-1,2,4-oxadiazol-3-yl]benzyl}amino)propyl]phosphonic acid]	6.5
CCN1N=C(c2nc(-c3ccc(CNCCCP(=O)(O)O)cc3)no2)CC1c1ccccc1 (centres unmarked) [Compound 4, [3-({4-[5-(1-ethyl-5-phenyl-4,5-dihydro-1H-pyrazol-3-yl)-1,2,4-oxadiazol-3-yl]benzyl}amino)propyl]phosphonic acid]	25
CCN1N=C(c2nc(-c3ccc(CNCCC(=O)O)cc3)no2)CC1c1ccccc1 (centres unmarked) [Compound 5, 3-({4-[5-(1-ethyl-5-phenyl-4,5-dihydro-1H-pyrazol-3-yl)-1,2,4-oxadiazol-3-yl]benzyl}amino)propanoic acid]	274
CCN1N=C(c2nc(-c3cc(F)c(CNCCCP(=O)(O)O)c(F)c3)no2)CC1c1ccccc1 (centres unmarked) [Compound 6, [3-({4-[5-(1-ethyl-5-phenyl-4,5-dihydro-1H-pyrazol-3-yl)-1,2,4-oxadiazol-3-yl]-2,6-difluorobenzyl}amino)propyl]phosphonic acid]	5.4
CCN1N=C(c2nc(-c3cc(F)c(CNCCC(=O)O)c(F)c3)no2)CC1c1ccccc1 (centres unmarked) [Compound 7, 3-({4-[5-(1-ethyl-5-phenyl-4,5-dihydro-1H-pyrazol-3-yl)-1,2,4-oxadiazol-3-yl]-2,6-difluorobenzyl}amino)propanoic acid]	42
CCN1N=C(c2nc(-c3ccc(CNCCCP(=O)(O)O)cc3F)no2)CC1c1ccccc1 (centres unmarked) [Compound 8, [3-({4-[5-(1-ethyl-5-phenyl-4,5-dihydro-1H-pyrazol-3-yl)-1,2,4-oxadiazol-3-yl]-3-fluorobenzyl}amino)propyl]phosphonic acid]	11
CCN1N=C(c2nc(-c3ccc(CNCCC(=O)O)cc3F)no2)CC1c1ccccc1 (centres unmarked) [Compound 9, 3-({4-[5-(1-ethyl-5-phenyl-4,5-dihydro-1H-pyrazol-3-yl)-1,2,4-oxadiazol-3-yl]-3-fluorobenzyl}amino)propanoic acid]	49
CCc1cc(-c2noc(C3=NN(CC)C(c4ccccc4)C3)n2)ccc1CNCCCP(=O)(O)O (centres unmarked) [Compound 10, [3-({2-ethyl-4-[5-(1-ethyl-5-phenyl-4,5-dihydro-1H-pyrazol-3-yl)-1,2,4-oxadiazol-3-yl]benzyl}amino)propyl]phosphonic acid]	2.6
CCc1cc(-c2noc(C3=NN(CC)C(c4ccccc4)C3)n2)ccc1CNCCC(=O)O (centres unmarked) [Compound 11, 3-({2-ethyl-4-[5-(1-ethyl-5-phenyl-4,5-dihydro-1H-pyrazol-3-yl)-1,2,4-oxadiazol-3-yl]benzyl}amino)propanoic acid]	21
CCCN1N=C(c2nc(-c3ccc(CNCCC(=O)O)cc3)no2)CC1c1ccccc1 (centres unmarked) [Compound 12, 3-({4-[5-(5-phenyl-1-propyl-4,5-dihydro-1H-pyrazol-3-yl)-1,2,4-oxadiazol-3-yl]benzyl}amino)propanoic acid]	65
